These results are taken from the Kinase Knowledgebase extract (Sharma et al. 2016).

A value given as a limit tells only on which side of the number the result lay.

EGFR, sequence (P00533 whole entry, looked up): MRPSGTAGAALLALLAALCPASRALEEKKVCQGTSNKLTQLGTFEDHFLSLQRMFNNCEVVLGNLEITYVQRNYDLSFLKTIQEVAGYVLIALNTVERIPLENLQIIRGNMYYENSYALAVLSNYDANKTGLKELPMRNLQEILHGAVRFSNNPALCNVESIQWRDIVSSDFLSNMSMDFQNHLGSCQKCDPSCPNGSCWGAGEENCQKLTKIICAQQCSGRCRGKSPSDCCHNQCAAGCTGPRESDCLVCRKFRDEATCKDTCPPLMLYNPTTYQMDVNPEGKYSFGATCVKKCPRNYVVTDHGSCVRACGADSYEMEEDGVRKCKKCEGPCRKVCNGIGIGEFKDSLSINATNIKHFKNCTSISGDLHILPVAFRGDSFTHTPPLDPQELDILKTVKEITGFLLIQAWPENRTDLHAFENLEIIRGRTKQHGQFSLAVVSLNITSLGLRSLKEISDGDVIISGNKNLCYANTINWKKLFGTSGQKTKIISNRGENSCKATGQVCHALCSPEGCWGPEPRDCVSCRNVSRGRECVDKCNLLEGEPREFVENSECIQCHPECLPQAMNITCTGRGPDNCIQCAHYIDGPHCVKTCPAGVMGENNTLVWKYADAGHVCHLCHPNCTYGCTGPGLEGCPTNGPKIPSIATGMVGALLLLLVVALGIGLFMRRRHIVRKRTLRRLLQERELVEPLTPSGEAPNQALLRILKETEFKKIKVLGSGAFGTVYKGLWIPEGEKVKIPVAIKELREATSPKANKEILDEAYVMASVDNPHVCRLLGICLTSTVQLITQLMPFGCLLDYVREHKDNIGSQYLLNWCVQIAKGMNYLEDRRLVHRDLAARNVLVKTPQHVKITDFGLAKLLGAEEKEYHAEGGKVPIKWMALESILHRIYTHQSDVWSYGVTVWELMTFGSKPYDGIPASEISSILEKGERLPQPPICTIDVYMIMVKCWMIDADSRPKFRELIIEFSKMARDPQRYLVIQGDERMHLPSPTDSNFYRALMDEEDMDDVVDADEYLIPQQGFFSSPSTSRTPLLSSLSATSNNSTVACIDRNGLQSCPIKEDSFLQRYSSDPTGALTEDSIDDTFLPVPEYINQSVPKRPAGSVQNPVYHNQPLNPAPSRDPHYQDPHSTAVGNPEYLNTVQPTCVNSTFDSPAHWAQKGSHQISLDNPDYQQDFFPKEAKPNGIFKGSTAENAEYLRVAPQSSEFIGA

This assay addresses EGFR (UniProt P00533).
`COc1ccc2c(N[C@H](C)c3ccccc3)ncnc2c1`: the IC50 amounted to 29 nM. In the case of `c1ccc(CCNc2ncnc3ccccc23)cc1`, the IC50 amounted to 4100 nM. `c1ccc(CNc2ncnc3ccccc23)cc1` showed a half-maximal inhibitory concentration (IC50) of 320 nM. Compared with the last compound, the IC50 is about 13-fold lower. The value for `COc1ccc2c(NCc3ccccc3)ncnc2c1` was 58 nM; that for `COc1ccc2c(Nc3ccccc3)ncnc2c1` was 120 nM; that for `COc1cc2ncnc(NCc3cccc4ccccc34)c2cc1OC` was 148 nM. Consider `COc1cc2ncnc(NC3CCc4ccccc43)c2cc1OC` (stereo not given), for which the IC50 is 1000 nM. Against the preceding compound, the IC50 is about 6.8-fold higher. With `C[C@@H](Nc1ncnc2ccccc12)c1ccccc1` the figure was 86 nM; with `CC[C@@H](Nc1ncnc2cc(OC)c(OC)cc12)c1ccccc1`, 234 nM; with `COc1cc2ncnc(N[C@@H](C)c3ccccc3)c2cc1OC`, 3760 nM. With `COc1cc2ncnc(N[C@H](C)c3ccccc3)c2cc1OC` the figure was 1.6 nM; with `COc1ccc2c(N[C@@H](C)c3ccccc3)ncnc2c1`, 4000 nM; with `C[C@H](Nc1ncnc2ccccc12)c1ccccc1`, greater than 10000 nM. With `COc1cc2ncnc(N[C@H](C)c3cccc4ccccc34)c2cc1OC` the figure was 139 nM. As for `COc1cc2ncnc(NCc3ccccc3)c2cc1OC`, the concentration for half-maximal inhibition (IC50) was determined as 10 nM.
